In ChEMBL document CHEMBL2095176, “GSK Tuberculosis Screening Data”:
≈ marks a conversion by molar mass, not a printed value.

These molecules were tested on Mycobacterium tuberculosis variant bovis BCG (assay: microbe, parasite or virus in culture).
Type: functional

Compound | MIC90 [µM]
c1ccc(SCc2nn3c(-c4ccccc4)nnc3s2)cc1 | 7.5 (≈ 2.43 µg/mL)
COc1ccc(C(=O)[C@H]2C[C@@H]2CN(Cc2ccccn2)Cc2ccccn2)cc1 | 7.7 (≈ 2.98 µg/mL)
N#Cc1nc(-c2ccccc2F)oc1NCCc1ccccc1 | 7.9 (≈ 2.43 µg/mL)
CCCc1ccc(S(=O)(=O)Nc2ccc(CN3CCN(CC4CC4)CC3)cc2)cc1.O=C(O)C(F)(F)F.O=C(O)C(F)(F)F | 8.1
O=c1c2sc(-c3ccc(Cl)cc3)cc2ncn1-c1ccc(OCCN2CC[C@@H](F)C2)cc1 | 6.7 (≈ 3.15 µg/mL)
O=C(NNC(=O)c1cccs1)c1ccc(OCc2ccccc2)cc1 | 9.9 (≈ 3.49 µg/mL)
CNC1=NC(=O)[C@H]([C@H](C)c2c[nH]c3ccccc23)O1 [INDOMYCIN] | 5 (≈ 1.29 µg/mL)
c1ccc(Cc2nn3c(-c4ccccc4)nnc3s2)cc1 | 8.2 (≈ 2.4 µg/mL)
COc1ccc2sc(Nc3nc(C)n(-c4ccccc4)c(=O)n3)nc2c1 | 9.5 (≈ 3.47 µg/mL)
O=C(O)c1ccccc1COc1ccccc1 | 0.5 (≈ 0.114 µg/mL)
O=C(Nc1nnc(-c2ccc(Cl)s2)o1)c1ccc(Cl)s1 | 7.5 (≈ 2.6 µg/mL)
COc1cc(CN2CCCC(c3cc(C(F)(F)F)n4nc(C)cc4n3)C2)ccc1O (stereo not drawn) | 6 (≈ 2.52 µg/mL)
COCCCNC(=N)c1ccc(NC(=O)c2ccc(C(=O)Nc3ccc(C(=N)NCCCOC)cc3)cc2)cc1 | 0.5 (≈ 0.272 µg/mL)
Cc1ccc(Cl)c2sc(N(CCN(C)C)C(=O)c3cccc(S(C)(=O)=O)c3)nc12 | 4.2 (≈ 1.9 µg/mL)
O=C(Nc1nc(-c2ccccn2)cs1)c1ccco1 | 4.5 (≈ 1.22 µg/mL)
COCCN1CCN(c2ncc(-c3ccccc3OCc3cc(C)on3)cn2)CC1 | 4.4 (≈ 1.8 µg/mL)
COCCNc1nc(N2CCCC2)c2c(c1C#N)CCN(C)C2 | 0.8 (≈ 0.252 µg/mL)
CN(C)S(=O)(=O)c1ccc(C(=O)Nc2nnc(-c3ccc(Cl)s3)o2)cc1 | 5.7 (≈ 2.35 µg/mL)
CSc1ccc(CC(=O)Nc2nc(-c3ccccn3)cs2)cc1 | 9.1 (≈ 3.11 µg/mL)
Fc1cccc(Sc2nccc(N3CCNCC3)n2)c1 | 6 (≈ 1.74 µg/mL)

Compound | MIC90 [µM]
Cc1ccc2[nH]c(C3CCCNC3)c(-c3ccncc3)c2c1 (stereo not drawn) | 8.9 (≈ 2.59 µg/mL)
COCCCNCCOc1ccc2ccccc2c1Br | 6.8 (≈ 2.3 µg/mL)
COc1ccc(CCNc2cc(-c3ccccc3)nc3ncnn23)cc1 | 1 (≈ 0.345 µg/mL)
O=C(NNC(=O)c1cccs1)c1ccc(Oc2ccccc2)cc1 | 4.4 (≈ 1.49 µg/mL)
Cc1nc(-c2cccnc2)nc(N2CCCN(Cc3ccc(F)cc3)CC2)c1Cl | 5.5 (≈ 2.27 µg/mL)
O=C(CCCOc1ccccc1)Nc1nc(-c2ccccn2)cs1 | 5.4 (≈ 1.83 µg/mL)
CCOc1ncccc1C(=O)Nc1ccccc1Nc1ccccc1 | 6.4 (≈ 2.13 µg/mL)
CC(=O)N1CCc2cc3nc(C)cc(C)c3cc21 | 3.5 (≈ 0.841 µg/mL)
O=C(C=Cc1cccs1)Nc1nc(-c2ccccn2)cs1 | 3.3 (≈ 1.03 µg/mL)
O=c1c2snc(-c3ccc(F)cc3)c2ncn1Cc1ccc(F)cc1 | 9.6 (≈ 3.41 µg/mL)
CC(Oc1ccccc1)C(=O)Nc1nc(-c2ccccn2)cs1 (stereo not drawn) | 5.4 (≈ 1.76 µg/mL)
COc1ccc(-c2nsc(NC(=O)COc3ccc(C)cc3)n2)cc1OC | 4.7 (≈ 1.81 µg/mL)
Cc1ccc(S(=O)(=O)c2nc(S(=O)(=O)c3ccccc3)sc2Cl)cc1 | 9.6 (≈ 3.97 µg/mL)
OC1(c2ccccc2)Oc2ccccc2N=C1c1ccccc1 (stereo not drawn) | 4.8 (≈ 1.45 µg/mL)
COc1cc(CN2CCC(Cc3nc(-c4ccc5c(c4)CCO5)no3)C2)ccc1F (stereo not drawn) | 6.7 (≈ 2.74 µg/mL)
c1ccc2oc(CN3CCC4(CC3)OCCc3sccc34)cc2c1 | 2.8 (≈ 0.95 µg/mL)
COc1ccc(C2CC(=O)N(Cc3cccc(F)c3)c3ccccc3S2)cc1OC (stereo not drawn) | 5.9 (≈ 2.5 µg/mL)
Nn1c(=O)oc2ccc(Cl)cc2c1=O | 2.8 (≈ 0.595 µg/mL)
CC(=O)c1cccc(NC(=O)N(CCc2cccnc2)Cc2csc(-c3ccc(CNCc4ccccc4)cc3)n2)c1 | 2.6 (≈ 1.5 µg/mL)
CC(=O)Nc1ccc(S(=O)(=O)Nc2ccccc2Nc2ccc(C)cc2)cc1 | 1.9 (≈ 0.751 µg/mL)

Compound | MIC90 [µM]
Nc1nc(N)c2c(Sc3ccc4ccccc4c3)cccc2n1 | 4.4 (≈ 1.4 µg/mL)
c1ncn(-c2ccc(COc3ccc(-n4cncn4)cc3)cc2)n1 | 6.8 (≈ 2.16 µg/mL)
O=C(Nc1ccccc1-c1nc(Br)cs1)OCC1CCNCC1 | 8 (≈ 3.17 µg/mL)
Cc1cccc(-c2nc(C(=O)Nc3ccnc4ncnn34)cs2)c1 | 5.3 (≈ 1.78 µg/mL)
Cc1cc(C)n(-c2nc3ccccc3c(=O)[nH]2)n1 | 3.3 (≈ 0.793 µg/mL)
O=C(CSCc1ccc(Cl)cc1)NNC(=O)c1ccncc1 | 9.7 (≈ 3.26 µg/mL)
COc1ccc(S(=O)(=O)CC(=O)N(CCN(C)C)c2nc3c(C)ccc(Cl)c3s2)cc1 | 7 (≈ 3.37 µg/mL)
O=C(CSc1ccc(Cl)cc1)Nc1nc(-c2ccccn2)cs1 | 4.7 (≈ 1.7 µg/mL)
CN(C)c1ccc(NC(=O)Nc2ccccc2C(F)(F)F)cc1 | 6.4 (≈ 2.07 µg/mL)
CN(Cc1nc2ccccc2s1)C(=O)c1cccc(NC(=O)c2cccs2)c1 | 1.4 (≈ 0.571 µg/mL)
Clc1ccc(OCc2noc(CC3CCN(CCOCc4ccccc4)C3)n2)cc1 (stereo not drawn) | 6 (≈ 2.57 µg/mL)
CN(C)c1nc2scc(-c3ccccc3)c2c(=O)o1 | 1.5 (≈ 0.408 µg/mL)
COc1cccc(CNc2nc(C)cc(-c3cccc(CN(C)C)c3)n2)c1 | 7 (≈ 2.54 µg/mL)
CCOc1ccc(C=C(C(=O)NCc2ccc(F)cc2)c2nc3ccccc3[nH]2)cc1 | 6.1 (≈ 2.53 µg/mL)
COc1ccc(Nc2ccccc2N)cc1Cl | 2.3 (≈ 0.572 µg/mL)
Cc1ccc(C)c(-c2nnc(NC(=O)c3ccc(Br)s3)o2)c1 | 1.6 (≈ 0.605 µg/mL)
O=C(NNC(=O)N1CCN(C(c2ccccc2)c2ccc(Cl)cc2)CC1)c1ccc([N+](=O)[O-])o1 (stereo not drawn) | 1.1 (≈ 0.532 µg/mL)
COc1ccc2sc(Nc3nc(-c4ccccn4)cs3)nc2c1 | 3.5 (≈ 1.19 µg/mL)
